Earlier results as cited in patent US20190298660A1, “PHOSPHATE-CROSSLINKED STARCH NANOPARTICLES AND USE FOR DRUG DELIVERY” (GreenMark Biomedical Inc., priority 2018, published 2019).

pKa: 9.53
SMILES: COc1cccc2c1C(=O)c1c(O)c3c(c(O)c1C2=O)C[C@@](O)(C(=O)CO)C[C@@H]3O[C@H]1C[C@H](N)[C@H](O)[C@H](C)O1 [doxorubicin]
